A short description of assay [1]: Antioxidant activity assessed as trolox equivalent at 0.5 to 2.0 uM by ORAC-fluorescein assay. Format: functional.
The next assay deals with HeLa. The assay is described as follows: Cytotoxicity against human HeLa cells by MTT assay. Format: functional, cell-based.
Assay [2] is described as follows: Antioxidant activity assessed as trolox equivalent at 0.4 to 1 uM by ORAC-fluorescein assay. Format: functional.
Assay [3] can be described thus: Antioxidant activity assessed as trolox equivalent at 0.25 to 1.5 uM by ORAC-fluorescein assay. The class given is functional.
Assay [4] is described as follows: Antioxidant activity assessed as trolox equivalent at 0.2 to 0.6 uM by ORAC-fluorescein assay. The class given is functional.
Assay [5] in a line: Antioxidant activity assessed as trolox equivalent at 0.1 to 1 uM by ORAC-fluorescein assay. Format: functional.
Assay [6] can be described thus: Antioxidant activity assessed as trolox equivalent at 0.3 to 1 uM by ORAC-fluorescein assay. Format: functional.
Assay [7] in a line: Antioxidant activity assessed as trolox equivalent at 0.1 to 1.5 uM by ORAC-fluorescein assay. Format: functional.

With `COc1ccc(/C=C/C(=O)c2c(OC)cc(O)c(CC=C(C)C)c2O)cc1OC`, in assay [1], the Activity was found to be 0.9. In the assay on HeLa, this compound registered an IC50 of 17.1 µM.

`O=C(O)/C=C/c1ccc(O)cc1`: the Activity in assay [2] was 4.51.

Take `COc1cc(O)c(CC=C(C)C)c(O)c1C(=O)/C=C/c1ccc(O)cc1` [XANTHOHUMOL]: in assay [3], the Activity came to 2.3. The same compound displayed a half-inhibitory concentration (IC50) in the assay on HeLa of 9.4 µM.

As to `COc1cc(O)c(C(=O)/C=C/c2ccc(O)cc2)c(O)c1CC=C(C)C` [XANTHOGALENOL], the Activity in assay [3] worked out at 1.8. Further, the IC50 in the assay with HeLa was 28.3 µM.

For the compound `O=c1c(O)c(-c2ccc(O)c(O)c2)oc2cc(O)cc(O)c12`, the Activity in assay [4] was determined as 10.5.

With `COc1cc(O)cc(O)c1C(=O)/C=C/c1ccc(O)cc1` [HELICHRYSETIN], in assay [5], the Activity was 4.4. The midpoint of inhibition in the assay with HeLa, the IC50, lay at 5.2 µM.

As to `COc1cc(O)c(CC=C(C)C)c(O)c1C(=O)/C=C/c1ccccc1O`, the Activity in assay [3] came to 2.3. For the same compound, in the assay on HeLa, half-maximal inhibition (IC50) required 5.9 µM.

For the compound `COc1cc(O)c(C(=O)/C=C/c2ccc(O)cc2)c(OC)c1CC=C(C)C`, in assay [3], the Activity was 1.5. The compound also displayed an IC50 in the assay with HeLa of 25.6 µM.

As for `COc1cc(O)c(CC=C(C)C)c(O)c1C(=O)/C=C/c1cccc(O)c1`, in assay [3], the Activity worked out at 2.7. The compound also returned an IC50 in the assay on HeLa of 4.8 µM.

As to `COc1cc(O)c(CC=C(C)C)c(O)c1C(=O)/C=C/c1cc(O)c(O)c(O)c1`, in assay [5], the Activity was found to be 1.1. Besides, the IC50 in the assay on HeLa turned out to be 30.3 µM.

For the compound `COc1cc(/C=C/C(=O)O)ccc1O`, the Activity in assay [6] was determined as 4.47.

`COc1cc(O)c(CC=C(C)C)c(O)c1C(=O)/C=C/c1cc(O)cc(O)c1`: the Activity in assay [5] came to 2.9. Also, the IC50 in the assay on HeLa was 3.2 µM.

As for `COc1cc(O)c(CC=C(C)C)c(O)c1C(=O)/C=C/c1ccc(O)c(O)c1`, the Activity in assay [5] turned out to be 3.1. In addition, the IC50 in the assay with HeLa turned out to be 2.5 µM.

Regarding `COc1cc(O)cc(O)c1C(=O)/C=C/c1ccc(O)c(O)c1`, the Activity in assay [3] amounted to 3. The compound further came in with an IC50 in the assay on HeLa of 14.8 µM.

Regarding `COc1cc(OC)c(C(=O)/C=C/c2ccc(O)cc2)c(O)c1CC=C(C)C`, the Activity in assay [7] is 3.8. Also, the 50% inhibitory concentration (IC50) in the assay on HeLa stood at 11.8 µM.

With `CC(C)=CCc1c(O)cc(O)c(C(=O)/C=C/c2ccc(O)cc2)c1O` [DEMETHYLXANTHOHUMOL], in assay [3], the Activity is 3.8. In the assay on HeLa, this compound returned an IC50 of 16.5 µM.

The values are drawn from ChEMBL document CHEMBL1149886, “Natural and non-natural prenylated chalcones: synthesis, cytotoxicity and anti-oxidative activity” (Bioorg Med Chem, 2008).
